Measured values published in patent US20220324796A1, “ANTIBIOTIC COMPOUNDS” (The General Hospital Corporation, priority 2019, published 2022).
Converted amounts (≈) assume the structure as drawn.

How the values were obtained:
MRSA MW2 [1] = assay: Antimicrobial activity (MIC) of bithionol analogs; assay type: cell-based, S. aureus; settings: for antimicrobial activity compared with bithionol: in words (FIGS. 5, 13, 14)
Description: (§1) Minimal inhibitory concentration (MIC) assay. The MICs of antibiotics were determined by the standard micro-dilution method recommended by the Clinical and Laboratory Standards Institute. MIC assays were conducted in biological triplicate.

[2] = tested on: stationary-phase MRSA MW2 persisters; assay: Persister killing assay; assay type: cell-based, S. aureus; settings: for killing / viability of MRSA persisters: in words, 4 h treatment (FIGS. 5, 13, 14, 4B); for response of MRSA persisters to conventional antibiotics: 100× MIC
Description: (§2) Persister killing assay. […] Persister cells of MRSA MW2 or VRSA VRS1 were prepared by growing cultures overnight to stationary phase at 37° C. at 200 rpm and washing three times with PBS. 1 mL of ˜1×10^8 CFU/mL MRSA persisters was added to 1 mL of PBS containing a 2-fold higher concentration of the desired concentration of antibiotics in a 96-well assay block (Corning Costar 3960). For assays with daptomycin, PBS was supplemented with 50 μg/mL CaCl2. The assay block was incubated at 37° C. with shaking at 200 rpm. At various times, 400 μl samples were removed, washed once with PBS, serially diluted and spot-plated on TSA plates. Colonies were counted after overnight incubation at 37° C. to determine the titer of live cells. These experiments were conducted in triplicate.

MRSA MW2 cells = assay: Bacterial membrane permeability assay (SYTOX Green); assay type: cell-based, S. aureus; settings: for SYTOX Green membrane permeabilization: MRSA MW2 exponential-phase cells and/or persisters, in words; for membrane activity compared with bithionol: in words (FIGS. 5, 13, 14)
Description: Bacterial membrane permeability assay. Exponential-phase or stationary-phase S. aureus MW2 cells prepared as described above under Killing kinetics assay and Persister killing assay, respectively, were washed 3 times with the same volume of PBS. The washed cells were adjusted to OD600=0.4 with PBS. SYTOX Green (Molecular Probes, Waltham, Mass., USA) was added to 10 mL of the diluted bacterial suspension to a final concentration of 5 μM and incubated for 30 min at room temperature in the dark. 50 μl of the bacterial/SYTOX Green suspension was mixed with 50 μl of phosphate buffered saline (PBS) containing twice the desired concentrations of compounds in black, clear-bottom, 96-well plates (Corning no. 3904). Fluorescence was measured at room temperature using a spectrophotometer (SpectraMax M2, Molecular Devices) with excitation and emission wavelengths of 485 nm and 525 nm, respectively. All experiments were conducted in biological triplicate.

MRSA BF1 = assay: MIC assay (micro-dilution); assay type: cell-based, S. aureus; settings: Staphylococcus aureus
Description: as §1
(§3) Antimicrobial activity of each analog was tested against four MRSA strains (MW2, BF1, BF2, and BF3), Pseudomonas aeruginosa (PA14), Klebsiella pneumonia (WGLW2), and Acinetobacter baumannii (ATCC 17978).

MRSA BF2 = assay: MIC assay (micro-dilution); assay type: cell-based, S. aureus; settings: Staphylococcus aureus
Description: as §1, §3

MRSA BF3 = assay: MIC assay (micro-dilution); assay type: cell-based, S. aureus; settings: Staphylococcus aureus
Description: as §1, §3

MRSA MW2 [3] = assay: MIC assay (micro-dilution); assay type: cell-based, S. aureus; settings: Staphylococcus aureus
Description: as §1, §3

K. pneumoniae WGLW2 = assay: MIC assay (micro-dilution); assay type: cell-based, Klebsiella pneumonia; settings: Klebsiella pneumoniae
Description: as §1, §3

A. baumannii ATCC 17978 = assay: MIC assay (micro-dilution); assay type: cell-based; settings: Acinetobacter baumannii, ATCC17978
Description: as §1, §3

P. aeruginosa PA14 = assay: MIC assay (micro-dilution); assay type: cell-based; settings: Pseudomonas aeruginosa
Description: as §1, §3

18 S. aureus strains = assay: MIC assay, S. aureus strains of the panel; assay type: cell-based; settings: Staphylococcus aureus; range over the 18 S. aureus strains of the panel (FIG. 6)
Description: Bacterial strains and growth conditions. S. aureus strains were grown in tryptic soy broth (TSB) (BD, Franklin Lakes, N.J., USA). E. faecium and E. faecalis strains were grown in brain-heart infusion (BHI) broth (BD, Franklin Lakes, N.J., USA), and four Gram-negative species, Klebsiella pneumoniae, Acinetobacter baumannii, Pseudomonas aeruginosa, and Enterobacter aerogenes were grown in Luria Bertani (LB) broth (BD, Franklin Lakes, N.J., USA). All bacteria were grown at 37° C. at 200 r.p.m.
as §1

[4] = tested on: VRSA strain VRS1 persisters; assay: Persister killing assay; assay type: cell-based, S. aureus; settings: linezolid and daptomycin at 100× MIC; bithionol at indicated concentrations (FIG. 1E)
Description: as §2

[5] = tested on: MRSA strain MW2 persisters; assay: Deep-seated mouse thigh infection model, bacterial load; assay type: in vivo; settings: 30 mg/kg each agent, every 12 h for 3 days from 24 h post-infection
Description: Deep-seated mouse thigh infection model. […] Mice were euthanized at 96 h post-infection. […] Thighs were homogenized in PBS, serially diluted with PBS, and spot-plated on TSA plates.

S. aureus MW2 = assay: Membrane fluidity assay (Laurdan GP); assay type: cell-based; settings: 32 μg/mL (FIG. 4), in words
Description: Membrane fluidity assay. Bacterial membrane fluidity was estimated by slightly modifying previously described methods. An overnight culture of S. aureus MW2 was diluted 1:1,000 in 25 mL TSB. The diluted culture was grown to OD600˜1.5 at 37° C. with shaking at 200 rpm, followed by 10 min incubation with 10 μM Laurdan at room temperature in the dark (Sigma-Aldrich, Cat # 40227). The stained cell culture was washed with PBS 4 times and concentrated 2 times. 100 μL of the 2-fold concentrated culture was mixed with 100 μL of phosphate buffered saline (PBS) containing twice the desired concentrations of compounds in black, clear-bottom, 96-well plates (Corning no. 3904). After 1 h incubation at room temperature in the dark, the Laurdan fluorescence intensities were measured using a spectrophotometer (SpectraMax M2, Molecular Devices) with emission wavelengths of 435 nm and 490 nm upon excitation at 350 nm. The Laurdan GP was calculated using the formula GP=(I435−I490)/(I435+I490). All experiments were conducted in biological triplicate.

Row | Compound | antimicrobial activity compared with bithionol (MRSA MW2 [1]) | killing / viability of MRSA persisters [2] | SYTOX Green membrane permeabilization (MRSA MW2 cells) | membrane activity compared with bithionol (MRSA MW2 cells) | melting point | further results
1 | Oc1c(Cl)cc(F)cc1Sc1cc(F)cc(Cl)c1O [BT-pF, 6,6′-thio-bis-(2-chloro-4-fluorophenol)] | slightly reduced | do not kill them | permeabilize MRSA persister cell membranes | slightly reduced | 140 to 142 °C | 
2 | Oc1c(Br)cc(Br)cc1Sc1cc(Br)cc(Br)c1O [BT-opBr, 6, 6′-thio-bis-(2,4-dibromophenol)] | similar |  |  | similar | 164 to 166 °C | 
3 | NCCOc1c(Cl)cc(Cl)cc1Sc1cc(Cl)cc(Cl)c1OCCN [Compound 1] |  |  |  |  |  | MIC (MRSA BF1): 64 µg/mL (≈ 145 µM); MIC (MRSA BF2): 64 µg/mL (≈ 145 µM); MIC (MRSA BF3): 32 µg/mL (≈ 72.4 µM); MIC (MRSA MW2 [3]): 64 µg/mL (≈ 145 µM); MIC (K. pneumoniae WGLW2): 64 µg/mL (≈ 145 µM); MIC (A. baumannii ATCC 17978): 64 µg/mL (≈ 145 µM); MIC (P. aeruginosa PA14): > 64 µg/mL
4 | Oc1c(F)cc(F)cc1Sc1cc(F)cc(F)c1O [BT-opF, 6,6′-thio-bis-(2,4-difluorophenol)] | slightly reduced |  |  | slightly reduced | 127 to 130 °C | 
5 | CCCCCCCCCC(=O)N[C@@H](Cc1c[nH]c2ccccc12)C(=O)N[C@H](CC(N)=O)C(=O)N[C@@H](CC(=O)O)C(=O)N[C@@H]1C(=O)NCC(=O)N[C@@H](CCCN)C(=O)N[C@@H](CC(=O)O)C(=O)N[C@H](C)C(=O)N[C@@H](CC(=O)O)C(=O)NCC(=O)N[C@H](CO)C(=O)N[C@@H]([C@H](C)CC(=O)O)C(=O)N[C@@H](CC(=O)c2ccccc2N)C(=O)O[C@@H]1C [daptomycin] |  | does not kill MRSA persisters | does not induce rapid SYTOX Green membrane permeabilization |  |  | MIC (18 S. aureus strains): 0.5 to 8 µg/mL (≈ 0.309 to 4.94 µM); activity against VRSA VRS1 persisters [4]: nominal activity; response of MRSA persisters to conventional antibiotics [2]: high level of tolerance
6 | COc1c(Cl)cc(Cl)cc1Sc1cc(Cl)cc(Cl)c1OC [BT-OMe, bis-(3,5-Dichloro-2-methoxyphenyl)-sulfane] | complete nullification |  |  | complete nullification |  | 
7 | gentamicin |  |  |  |  |  | effect on MRSA CFUs in the mouse thigh [5]: did not significantly reduce
8 | [O-][S+](c1cc(Cl)cc(Cl)c1O)c1cc(Cl)cc(Cl)c1O [bitin-S] | decreased antimicrobial activity | do not kill them | permeabilize MRSA persister cell membranes | reduced membrane activity |  | MIC (MRSA MW2 [1]; bithionol analogs (FIGS. 5 and 13), strain not given): 8 µg/mL (≈ 21.5 µM); change in membrane fluidity (Laurdan GP) (S. aureus MW2): do not cause the change in membrane fluidity
9 | CN[C@H](CC(C)C)C(=O)N[C@H]1C(=O)N[C@@H](CC(N)=O)C(=O)N[C@H]2C(=O)N[C@H]3C(=O)N[C@H](C(=O)N[C@H](C(=O)O)c4cc(O)cc(O)c4-c4cc3ccc4O)[C@H](O)c3ccc(c(Cl)c3)Oc3cc2cc(c3O[C@@H]2O[C@H](CO)[C@@H](O)[C@H](O)[C@H]2O[C@H]2C[C@](C)(N)[C@H](O)[C@H](C)O2)Oc2ccc(cc2Cl)[C@H]1O [vancomycin] |  |  |  |  |  | effect on MRSA CFUs in the mouse thigh [5]: did not significantly reduce
10 | CC(=O)NC[C@H]1CN(c2ccc(N3CCOCC3)c(F)c2)C(=O)O1 [linezolid] |  |  |  |  |  | activity against VRSA VRS1 persisters [4]: no; response of MRSA persisters to conventional antibiotics [2]: high level of tolerance
11 | Oc1c(Br)cc(Cl)cc1Sc1cc(Cl)cc(Br)c1O [BT-oBr, 6,6′-thio-bis-(2-bromo-4-chlorophenol)] | similar |  |  | similar | 178 to 180 °C | 
12 | Oc1c(Cl)cc(Br)cc1Sc1cc(Br)cc(Cl)c1O [BT-pBr, 6,6′-thio-bis-(4-bromo-2-chlorophenol)] | similar |  |  | similar | 200 to 202 °C | 
13 | Oc1c(F)cc(Cl)cc1Sc1cc(Cl)cc(F)c1O [BT-oF, 6,6′-thio-bis-(4-chloro-2-fluorophenol)] | slightly reduced | do not kill them | permeabilize MRSA persister cell membranes | slightly reduced | 159 to 161 °C | 
